Data: patent publication US12030883B2, “Hetero-tricyclic compounds as inhibitors of KRAS” (Incyte Corporation, priority 2021, dated 2024)

Tests used:
KRAS G12V = KRAS G12V (Homo sapiens, UniProt P01116, G12V); assay: GDP-GTP exchange assay, KRAS G12V (bodipy-GDP/GppNHp, SOS1); type: biochemical; settings: bodipy-loaded KRAS G12V 2.5 nM, 3 hours pre-incubation with inhibitor, SOS1 150 nM, GppNHp 500 uM; read-out: G12V_exchange (KRAS_G12V exchange assay IC50)
Description: (§1) The inhibitor potency of the exemplified compounds was determined in a fluorescence based guanine nucleotide exchange assay, which measures the exchange of bodipy-GDP (fluorescently labeled GDP) for GppNHp (Non-hydrolyzable GTP analog) to generate the active state of KRAS in the presence of SOS1 (guanine nucleotide exchange factor). Inhibitors were serially diluted in DMSO and a volume of 0.1 μL was transferred to the wells of a black low volume 384-well plate. Five μL/well volume of bodipy-loaded KRAS G12D or G12V diluted to a final concentration of 2.5 nM in assay buffer (25 mM Hepes pH 7.5, 50 mM NaCl, 10 mM MgCl2 and 0.01% Brij-35) was added to the plate and pre-incubated with inhibitor for 4 hours (G12D) or 3 hours (G12V) at ambient temperature. A cyclic peptide described to selectively bind G12D mutant (Sakamoto et al., BBRC 484.3 (2017), 605-611) or internal compounds with confirmed binding were used as positive controls in the assay plates. The exchange was initiated by the addition of a 5 μL/well volume containing 1 mM GppNHp and 300 nM SOS1 in assay buffer. The 10 μL/well reaction concentration of the bodipy-loaded KRAS G12D or G12V, GppNHp, and SOS1 were 2.5 nM, 500 uM, and 150 nM, respectively.
(§2) Either GraphPad prism or XLfit was used to analyze the data. The IC50 values were derived by fitting the data to a four parameter logistic equation producing a sigmoidal dose-response curve with a variable Hill coefficient. Prism equation: Y=Bottom+(Top−Bottom)/(1+10^((LogIC50-X)*Hill slope)); XLfit equation: Y=(A+((B−A)/(1+((X/C)^D)))) where X is the logarithm of inhibitor concentration and Y is the response.

KRAS G12D [1] = molecular target: T1, KRAS G12D (Homo sapiens, UniProt P01116, G12D); assay: GDP-GTP exchange assay, KRAS G12D (bodipy-GDP/GppNHp, SOS1); type: biochemical; settings: bodipy-loaded KRAS G12D 2.5 nM, 4 hours pre-incubation with inhibitor, SOS1 150 nM, GppNHp 500 uM; read-out: G12D_exchange (KRAS_G12D exchange assay IC50)
T1 sequence (P01116 1-188 isoform P01116-2 G12D): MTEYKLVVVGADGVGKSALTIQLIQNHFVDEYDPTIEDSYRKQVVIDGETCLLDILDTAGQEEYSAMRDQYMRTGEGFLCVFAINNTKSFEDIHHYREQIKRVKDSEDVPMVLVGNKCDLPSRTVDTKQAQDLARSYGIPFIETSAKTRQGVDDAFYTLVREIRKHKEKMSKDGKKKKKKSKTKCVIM
Description: as §1, §2

KRAS G12D [2] = molecular target: T1, KRAS G12D; assay: KRAS_G12D pERK assay (cellular pERK HTRF assay); type: cell-based; parameters: host or cells: A427 or HPAF-II; settings: KRAS G12D cells (A427, HPAF-II named in method), 2 hours incubation, Phospho-ERK 1/2 HTRF; read-out: G12D_PERK (KRAS_G12D pERK assay IC50)
Description: MIA PaCa-2 (KRAS G12C; ATCC® CRL-1420), A427 (KRAS G12D; ATCC® HTB53), HPAF-II (KRAS G12D; ATCC® CRL-1997) and NCI-H838 (KRAS WT; ATCC® CRL-5844) cells are purchased from ATCC and maintained in RPMI 1640 media supplemented with 10% FBS (Gibco/Life Technologies). The cells are plated at 5000 cells per well (8 uL) into Greiner 384-well low volume, flat-bottom, tissue culture treated white plates and incubated overnight at 37° C., 5% CO2. The next morning, test compound stock solutions are diluted in media at 3× the final concentration, and 4 uL are added to the cells. The plate is mixed by gentle rotation for 30 seconds (250 rpm) at room temperature. The cells are incubated with the KRAS G12C and G12D compounds for 4 hours or 2 hours respectively at 37° C., 5% CO2.
4 uL of 4× lysis buffer with blocking reagent (1:25) (Cisbio) are added to each well and plates are rotated gently (300 rpm) for 30 minutes at room temperature. 4 uL per well of Cisbio anti Phospho-ERK 1/2 d2 is mixed with anti Phospho-ERK 1/2 Cryptate (1:1) are added to each well, mixed by rotation and incubated overnight in the dark at room temperature. Plates are read on the Pherastar plate reader at 665 nm and 620 nm wavelengths. IC50 determination is performed by fitting the curve of inhibitor percent inhibition versus the log of the inhibitor concentration using the GraphPad Prism 7 software.

Chain of KRAS G12V (P01116 1-188 isoform P01116-2 G12V): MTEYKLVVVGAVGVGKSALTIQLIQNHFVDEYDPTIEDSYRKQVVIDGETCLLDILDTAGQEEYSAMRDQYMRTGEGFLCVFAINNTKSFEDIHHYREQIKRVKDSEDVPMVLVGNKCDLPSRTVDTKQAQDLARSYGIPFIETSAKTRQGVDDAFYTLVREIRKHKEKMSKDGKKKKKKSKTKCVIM

SMILES	IC50 (KRAS G12V)	IC50 (KRAS G12D [1])	IC50 (KRAS G12D [2])
N#CCCc1cc2c3c(c(OC[C@@]45CCCN4C[C@H](F)C5)nc2c(F)c1-c1cc(O)cc2ccccc12)NC(=O)CN3C1C2CNC1C2 (single isomer, unassigned) [Example 10a]	≤ 0.1 µM	≤ 0.1 µM	1 to 5 µM
N#CCCc1cc2c3c(c(-c4ccc5cccnc5c4)nc2c(F)c1-c1cc(O)cc2ccccc12)NC(=O)CN3C1C2CNC1C2 (single isomer, unassigned) [Example 6a, 3-(1-((endo)-2-Azabicyclo[2.1.1]hexan-5-yl)-7-fluoro-8-(3-hydroxynaphthalen-1-yl)-3-oxo-5-(quinolin-7-yl)-1,2,3,4-tetrahydropyrazino[2,3-c]quinolin-9-yl)propanenitrile]	≤ 0.1 µM	≤ 0.1 µM	1 to 5 µM
C[C@H](Oc1nc2c(F)c(-c3c[nH]c4ccccc34)c(CCC#N)cc2c2c1NC(=O)CN2C1C2CNC1C2)[C@@H]1CCCN1C (single isomer, unassigned) [Example 1a]	≤ 0.1 µM	≤ 0.1 µM	≤ 0.1 µM
CNC(=O)c1cccc(-c2nc3c(F)c(-c4cc(O)cc5ccccc45)c(CCC#N)cc3c3c2NC(=O)CN3C2C3CNC2C3)c1 (single isomer, unassigned) [Example 9b, 3-(1-((endo)-2-Azabicyclo[2.1.1]hexan-5-yl)-9-(2-cyanoethyl)-7-fluoro-8-(3-hydroxynaphthalen-1-yl)-3-oxo-1,2,3,4-tetrahydropyrazino[2,3-c]quinolin-5-yl)-N-methylbenzamide]	1 to 5 µM	1 to 5 µM	–
N#CCCc1cc2c3c(c(Cc4ccccc4)nc2c(F)c1-c1cc(O)cc2ccccc12)NC(=O)CN3C1C2CNC1C2 (single isomer, unassigned) [Example 8a, 3-(5-Benzyl-1-((endo)-2-azabicyclo[2.1.1]hexan-5-yl)-7-fluoro-8-(3-hydroxynaphthalen-1-yl)-3-oxo-1,2,3,4-tetrahydropyrazino[2,3-c]quinolin-9-yl)propanenitrile]	1 to 5 µM	0.1 to 1 µM	–
C[C@H](Oc1nc2c(F)c(-c3c[nH]c4ccccc34)c(CCC#N)cc2c2c1NC(=O)CN2C1C2CNC1C2)[C@@H]1CCCN1C (single isomer, unassigned) [Example 1b]	0.1 to 1 µM	0.1 to 1 µM	–
C[C@H](Oc1nc2c(F)c(-c3cccc(Cl)c3Cl)c(CCC#N)cc2c2c1NC(=O)CN2C1C2CNC1C2)[C@@H]1CCCN1C (single isomer, unassigned) [Example 2a]	0.1 to 1 µM	0.1 to 1 µM	–
C[C@H](Oc1nc2c(F)c(-c3cccc(Cl)c3Cl)c(CCC#N)cc2c2c1NC(=O)CN2C1C2CNC1C2)[C@@H]1CCCN1C (single isomer, unassigned) [Example 2c]	0.1 to 1 µM	0.1 to 1 µM	–
C[C@H](Oc1nc2c(F)c(-c3cc(O)cc4ccc(F)cc34)c(CCC#N)cc2c2c1NC(=O)CN2C1C2CNC1C2)[C@@H]1CCCN1C (single isomer, unassigned) [Example 4b]	0.1 to 1 µM	0.1 to 1 µM	–
C[C@H](Oc1nc2c(F)c(-c3cccc4ccc(F)cc34)c(CCC#N)cc2c2c1NC(=O)CN2C1C2CNC1C2)[C@@H]1CCCN1C (single isomer, unassigned) [Example 3b]	0.1 to 1 µM	0.1 to 1 µM	–
Cn1cnc(-c2nc3c(F)c(-c4cc(O)cc5ccccc45)c(CCC#N)cc3c3c2NC(=O)CN3C2C3CNC2C3)c1 (single isomer, unassigned) [Example 7b, 3-(1-((endo)-2-Azabicyclo[2.1.1]hexan-5-yl)-7-fluoro-8-(3-hydroxynaphthalen-1-yl)-5-(1-methyl-1H-imidazol-4-yl)-3-oxo-1,2,3,4-tetrahydropyrazino[2,3-c]quinolin-9-yl)propanenitrile]	1 to 5 µM	0.1 to 1 µM	–

The next lines start with the values.

IC50 (KRAS G12V)	IC50 (KRAS G12D [1])	IC50 (KRAS G12D [2])	SMILES
≤ 0.1 µM	≤ 0.1 µM	≤ 0.1 µM	Cc1cc2c(nc(O[C@@H](C)[C@@H]3CCCN3C)c3c(=O)ccn([C@H]4[C@H]5CN[C@@H]4C5)c32)c(F)c1-c1cccc2c1C(C#N)CCC2 (stereo partly drawn) [Example 23, 8-(1-((1R,4R,5S)-2-azabicyclo[2.1.1]hexan-5-yl)-7-fluoro-9-methyl-5-((S)-1-((S)-1-methylpyrrolidin-2-yl)ethoxy)-4-oxo-1,4-dihydrobenzo[h][1,6]naphthyridin-8-yl)-1,2,3,4-tetrahydronaphthalene-1-carbonitrile]
≤ 0.1 µM	≤ 0.1 µM	1 to 5 µM	N#CCCc1cc2c3c(c(OC[C@@]45CCCN4C[C@H](F)C5)nc2c(F)c1-c1cc(O)cc2ccccc12)NC(=O)CN3C1C2CNC1C2 (single isomer, unassigned) [Example 10b]
0.1 to 1 µM	≤ 0.1 µM	5 to 10 µM	Cc1cc2c(nc(O[C@@H](C)[C@@H]3CCCN3C)c3c(=O)c(Nc4cnn(C)c4)cn([C@H]4[C@H]5CN[C@@H]4C5)c32)c(F)c1-c1cccc2c1C(C#N)CCC2 (single isomer, unassigned) [Example 26b]
5 to 10 µM	5 to 10 µM	–	C[C@@H](CN(C)C)Oc1nc2c(F)c(-c3cc(O)cc4ccccc34)c(CCC#N)cc2c2c1CCCN2C1C2CNC1C2 (single isomer, unassigned) [Example 16a]
0.1 to 1 µM	0.1 to 1 µM	–	N#CCCc1cc2c3c(cnc2c(F)c1-c1cc(O)cc2ccccc12)N(c1ccccc1)C(=O)CN3[C@@H]1[C@@H]2CN[C@H]1C2 (relative stereo) [Example 17, 3-(1-((endo)-2-Azabicyclo[2.1.1]hexan-5-yl)-7-fluoro-8-(3-hydroxynaphthalen-1-yl)-3-oxo-4-phenyl-1,2,3,4-tetrahydropyrazino[2,3-c]quinolin-9-yl)propanenitrile]
≤ 0.1 µM	≤ 0.1 µM	–	C[C@H](Oc1nc2c(F)c(-c3cccc(Cl)c3Cl)c(CCC#N)cc2c2c1c(=O)c(N1CCCC1=O)cn2[C@H]1[C@H]2CN[C@@H]1C2)[C@@H]1CCCN1C (single isomer, unassigned) [Example 25]
5 to 10 µM	1 to 5 µM	–	CN1CCC[C@H]1COc1nc2c(F)c(-c3cc(O)cc4ccccc34)c(CCC#N)cc2c2c1CCCN2C1C2CNC1C2 (single isomer, unassigned) [Example 12a]
0.1 to 1 µM	≤ 0.1 µM	–	N#CCCc1cc2c3c(cnc2c(F)c1-c1cc(O)cc2ccccc12)N(CCC1CCNCC1)C(=O)CN3C1C2CNC1C2 (single isomer, unassigned) [Example 18a, 3-(1-((endo)-2-Azabicyclo[2.1.1]hexan-5-yl)-7-fluoro-8-(3-hydroxynaphthalen-1-yl)-3-oxo-4-(2-(piperidin-4-yl)ethyl)-1,2,3,4-tetrahydropyrazino[2,3-c]quinolin-9-yl)propanenitrile]
5 to 10 µM	5 to 10 µM	–	C[C@@H](CN(C)C)Oc1nc2c(F)c(-c3cc(O)cc4ccccc34)c(CCC#N)cc2c2c1NC(=O)CN2C1C2CNC1C2 (single isomer, unassigned) [Example 11b]
1 to 5 µM	1 to 5 µM	–	C[C@H](Oc1nc2c(F)c(-c3cc(O)cc4ccccc34)c(CCC#N)cc2c2c1CCCN2C1C2CNC1C2)[C@@H]1CCCN1C (single isomer, unassigned) [Example 15a]
5 to 10 µM	1 to 5 µM	–	N#CCCc1cc2c3c(c(OC[C@@]45CCCN4C[C@H](F)C5)nc2c(F)c1-c1cc(O)cc2ccccc12)NC(=O)CN3C1C2CNC1C2 (single isomer, unassigned) [Example 10d]
